From patent US20170027854A1, “Methods And Compositions For Improving The Appearance Of Skin” (ELC Management LLC, priority 2015, published 2017)
Ends that are not written are not given here.

Test system: SIRT6
Test: SIRT6 expression in normal human epidermal keratinocytes by immunohistochemistry
Type: cell-based
Settings: 1% and 3% of a 50 ppm peptide solution, FIG. 2
Procedure: SIRT6 is a member of the conserved family of sirtuin proteins which are associated with metabolism and longevity. SIRT6 is a histone 3, lysine 9 (H3K9) deacetylase and is primarily involved in DNA repair and telomere stability. The peptide of (SEQ ID No. 5) Gly-Ala-Gly-Val-Ser-Ala-Glu-NH2 was tested for Sirt6 stimulating activity as follows.
Normal Human Epidermal Keratinocytes p3
• 1. Cells were plated into 4 well chamber slides @ 10,000 cells/chamber and incubated at 37° C., 5% CO2 & 95% humidity for 24 hours. • 2. The peptide of SEQ ID No. 5 was prepared as follows: • 2.1. Dissolved 5 mg peptide in 5 ml medium to make a 1000 ppm stock solution. • 2.2. Diluted the stock solution to 50 ppm by combining 400 μl 1000 ppm stock solution with 7.6 ml medium • 2.3. Prepared a 3% of the 50 ppm solution by combining 1.5 ml 50 ppm stock with 48.5 ml medium • 2.4. Prepared a 1% of the 50 ppm solution by combining 0.5 ml 50 ppm stock with […] medium • 3. Placed treatments (500 μl per chamber) on cells for 48 h, refreshing treatments after 24 h • 4. Aspirated media and replaced with the appropriate treatments. Incubated for 1 & 6 hours. • 5. Performed immunohistochemistry on the cells
• 6. Prepared Wash Buffer (0.2% Triton X-100):
6.1. Add 1 mL of Triton X-100 to 499 ml of 1×PBS • 7. Prepared Block Solution (1%/10 mg/ml BSA)
7.1. Added 5 g of BSA into a final volume of 500 ml of 1×PBS • 8. […]

Gly-Ala-Gly-Val-Ser-Ala-Glu-NH2 (GAGVSAE-NH2) [SEQ ID No. 5]
SIRT6 expression: dose dependent increase in SIRT6 expression
